Legend:
[1] = tested on: rape; experiment: Test B pre/postemergence rape; assay type: in vivo, Brassica napus
In short: (§1)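 Herbicidal effect was estimated by eye on a ten-point control scale after plants spent twelve to sixteen days in a greenhouse following soil or foliar treatment. Foliar sprays targeted plants at one to four leaves; all doses were formulated in a non-phytotoxic solvent with surfactant.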

[2] = tested on: smallflower flatsedge; experiment: Test B flood test smallflower flatsedge; assay type: in vivo, Cyperus difformis
In short: (§2)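 Read-out is a visual response score from 0 (no effect) to 10 (complete control), assigned by comparison with untreated controls. Treatment was applied at the 2-leaf stage, and plants stayed in the greenhouse for twelve to sixteen days before scoring.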

[3] = tested on: soybean; experiment: Test B pre/postemergence soybean; assay type: in vivo, Glycine max
In short: as §1

[4] = tested on: corn; experiment: Test B pre/postemergence corn; assay type: in vivo, Zea mays
In short: as §1

[5] = tested on: blackgrass; experiment: Test B pre/postemergence blackgrass; assay type: in vivo, Alopecurus myosuroides
In short: as §1

[6] = tested on: wild oat; experiment: Test B pre/postemergence wild oat; assay type: in vivo, Avena fatua; conditions: for Plant response rating, Wild oats: Rate 250 g/ha
In short: as §1

[7] = tested on: rice; experiment: Test B flood test rice; assay type: in vivo, Oryza sativa
In short: as §2

[8] = tested on: surinam grass; experiment: Test B pre/postemergence surinam grass; assay type: in vivo, Brachiaria decumbens
In short: as §1

[9] = tested on: morningglory; experiment: Test B pre/postemergence morningglory; assay type: in vivo, Ipomoea hederacea
In short: as §1

[10] = tested on: wheat; experiment: Test B pre/postemergence wheat; assay type: in vivo, Triticum aestivum; conditions: for Plant response rating, Wheat: Rate 250 g/ha
In short: as §1

[11] = tested on: cocklebur; experiment: Test B pre/postemergence cocklebur; assay type: in vivo, Xanthium strumarium
In short: as §1

[12] = tested on: velvetleaf; experiment: Test B pre/postemergence velvetleaf; assay type: in vivo, Abutilon theophrasti; conditions: for Plant response rating, Velvetleaf: Rate 250 g/ha
In short: as §1

[13] = tested on: sugar beet; experiment: Test B pre/postemergence sugar beet; assay type: in vivo, Beta vulgaris; conditions: for Plant response rating, Sugarbeets: Rate 250 g/ha
In short: as §1

[14] = tested on: giant foxtail; experiment: Test B pre/postemergence giant foxtail; assay type: in vivo, Setaria faberii
In short: as §1

[15] = tested on: bedstraw; experiment: Test B pre/postemergence bedstraw; assay type: in vivo, Galium aparine
In short: as §1

[16] = tested on: pigweed; experiment: Test B pre/postemergence pigweed; assay type: in vivo, Amaranthus retroflexus
In short: as §1

[17] = Postemergence, Rate 125 g/ha, scale of 0 to 10 where 0 is no effect and 10 is complete control
[18] = Postemergence, Rate 250 g/ha, scale 0 to 10, 0 no effect, 10 complete control
[19] = Preemergence, Rate 62 g/ha, scale 0 to 10 (0 no effect, 10 complete control)
[20] = Preemergence, Rate 125 g/ha, scale 0 to 10 (0 no effect, 10 complete control)
[21] = Preemergence, Rate 250 g/ha, scale of 0 to 10 where 0 is no effect and 10 is complete control
[22] = Preemergence, Rate 500 g/ha, scale 0 to 10 (0 no effect, 10 complete control)
[23] = Rate 62 g/ha, Postemergence, scale of 0 to 10 where 0 is no effect and 10 is complete control
[24] = Rate 500 g/ha, Postemergence, scale 0 to 10, 0 no effect, 10 complete control
[25] = Postemergence (flood test species), Rate 125 g/ha, scale of 0 to 10 where 0 is no effect and 10 is complete control
[26] = Rate 62 g/ha, Postemergence section, flood test species, scale of 0 to 10 where 0 is no effect and 10 is complete control
[27] = Rate 250 g/ha, Postemergence (flood test), scale 0 to 10, 0 is no effect, 10 is complete control
[28] = Rate 500 g/ha, listed under Postemergence (flood test species), scale 0 to 10, 0 no effect, 10 complete control
[29] = Rate 250 g/ha, Postemergence, scale 0 to 10, 0 is no effect, 10 is complete control
[30] = Preemergence, Rate 125 g/ha, 0 is no effect, 10 is complete control
[31] = Preemergence, scale of 0 to 10 where 0 is no effect and 10 is complete control
[32] = Postemergence, scale 0 to 10, 0 is no effect, 10 is complete control

## Cc1nn(C)c(C)c1-n1c(=O)on(C(=O)N(c2ccccc2)C(C)C)c1=O [Compound 120]
[1]; [17]
  Rape plant response rating: 0
[1]; [18]
  Rape plant response rating: 0
[1]; [19]
  Rape plant response rating: 0
[1]; [20]
  Plant response rating, Rape: 0
[1]; [21]
  Plant response rating, Rape: 0
[1]; [22]
  Rape plant response rating: 3
[1]; [23]
  Rape plant response rating: 0
[1]; [24]
  Rape plant response rating: 0
[2]; [25]
  S. Flatsedge plant response rating: 0
[2]; [26]
  S. Flatsedge plant response rating: 0
[2]; [27]
  Plant response rating, S. Flatsedge: 0
[2]; [28]
  S. Flatsedge plant response rating: 0
[3]; [17]
  Soybean plant response rating: 3
[3]; [19]
  Soybean plant response rating: 0
[3]; [20]
  Plant response rating, Soybean: 0
[3]; [21]
  Plant response rating, Soybean: 0
[3]; [22]
  Soybean plant response rating: 0
[3]; [23]
  Soybean plant response rating: 2
[3]; [29]
  Plant response rating, Soybean: 4
[3]; [24]
  Soybean plant response rating: 6
[4]; [17]
  Corn plant response rating: 0
[4]; [18]
  Corn plant response rating: 2
[4]; [19]
  Corn plant response rating: 0
[4]; [20]
  Plant response rating, Corn: 0
[4]; [21]
  Plant response rating, Corn: 0
[4]; [22]
  Corn plant response rating: 0
[4]; [23]
  Corn plant response rating: 0
[4]; [24]
  Corn plant response rating: 4
[5]; [17]
  Blackgrass plant response rating: 4
[5]; [18]
  Blackgrass plant response rating: 6
[5]; [19]
  Blackgrass plant response rating: 0
[5]; [20]
  Plant response rating, Blackgrass: 3
[5]; [21]
  Plant response rating, Blackgrass: 7
[5]; [22]
  Blackgrass plant response rating: 8
[5]; [23]
  Blackgrass plant response rating: 0
[5]; [24]
  Blackgrass plant response rating: 8
[6]; [17]
  Wild oats plant response rating: 0
[6]; [19]
  Wild oats plant response rating: 0
[6]; [30]
  Wild oats plant response rating (0 to 10 scale): 2
[6]; [31]
  Plant response rating, Wild oats: 6
[6]; [22]
  Wild oats plant response rating: 8
[6]; [23]
  Wild oats plant response rating: 0
[6]; [32]
  Plant response rating, Wild oats: 0
[6]; [24]
  Wild oats plant response rating: 2
[7]; [25]
  Rice plant response rating: 0
[7]; [26]
  Rice plant response rating: 0
[7]; [27]
  Plant response rating, Rice: 2
[7]; [28]
  Rice plant response rating: 3
[8]; Postemergence, Rate 62 g/ha, scale 0 to 10, 0 is no effect, 10 is complete control
  B. signalgrass plant response rating: 0
[8]; [18]
  B. signalgrass plant response rating: 7
[8]; [19]
  B. signalgrass plant response rating: 0
[8]; [20]
  Plant response rating, B. signalgrass: 3
[8]; [21]
  Plant response rating, B. signalgrass: 6
[8]; [22]
  B. signalgrass plant response rating: 8
[8]; Rate 125 g/ha, Postemergence, scale 0 to 10, 0 no effect, 10 complete control
  B. signalgrass plant response rating: 4
[8]; Rate 500 g/ha, Postemergence, scale of 0 to 10 where 0 is no effect and 10 is complete control
  B. signalgrass plant response rating: 8
[9]; [17]
  Morningglory plant response rating: 7
[9]; [18]
  Morningglory plant response rating: 8
[9]; [19]
  Morningglory plant response rating: 0
[9]; [20]
  Plant response rating, Morningglory: 0
[9]; [21]
  Plant response rating, Morningglory: 0
[9]; [22]
  Morningglory plant response rating: 0
[9]; [23]
  Morningglory plant response rating: 4
[9]; [24]
  Morningglory plant response rating: 8
[10]; [17]
  Wheat plant response rating: 0
[10]; [19]
  Wheat plant response rating: 0
[10]; [30]
  Wheat plant response rating (0 to 10 scale): 0
[10]; [31]
  Plant response rating, Wheat: 2
[10]; [22]
  Wheat plant response rating: 6
[10]; [23]
  Wheat plant response rating: 0
[10]; [32]
  Plant response rating, Wheat: 0
[10]; [24]
  Wheat plant response rating: 4
[11]; [17]
  Cocklebur plant response rating: 1
[11]; [18]
  Cocklebur plant response rating: 3
[11]; [19]
  Cocklebur plant response rating: 0
[11]; [20]
  Plant response rating, Cocklebur: 0
[11]; [21]
  Plant response rating, Cocklebur: 0
[11]; [22]
  Cocklebur plant response rating: 0
[11]; [23]
  Cocklebur plant response rating: 1
[11]; [24]
  Cocklebur plant response rating: 4
[12]; [17]
  Velvetleaf plant response rating: 0
[12]; [19]
  Velvetleaf plant response rating: 0
[12]; [30]
  Velvetleaf plant response rating (0 to 10 scale): 0
[12]; [31]
  Plant response rating, Velvetleaf: 0
[12]; [22]
  Velvetleaf plant response rating: 3
[12]; [23]
  Velvetleaf plant response rating: 0
[12]; [32]
  Plant response rating, Velvetleaf: 2
[12]; [24]
  Velvetleaf plant response rating: 6
[13]; [17]
  Sugarbeets plant response rating: 0
[13]; [19]
  Sugarbeets plant response rating: 0
[13]; [30]
  Sugarbeets plant response rating (0 to 10 scale): 2
[13]; [31]
  Plant response rating, Sugarbeets: 4
[13]; [22]
  Sugarbeets plant response rating: 7
[13]; [23]
  Sugarbeets plant response rating: 0
[13]; [32]
  Plant response rating, Sugarbeets: 0
[13]; [24]
  Sugarbeets plant response rating: 0
[14]; [17]
  Giant foxtail plant response rating: 6
[14]; [18]
  Giant foxtail plant response rating: 8
[14]; [19]
  Giant foxtail plant response rating: 8
[14]; [20]
  Plant response rating, Giant foxtail: 9
[14]; [21]
  Plant response rating, Giant foxtail: 9
[14]; [22]
  Giant foxtail plant response rating: 10
[14]; [23]
  Giant foxtail plant response rating: 3
[14]; [24]
  Giant foxtail plant response rating: 8
[15]; [19]
  Bedstraw plant response rating: 0
[15]; [20]
  Plant response rating, Bedstraw: 0
[15]; [21]
  Plant response rating, Bedstraw: 0
[15]; [22]
  Bedstraw plant response rating: 0
[15]; [24]
  Bedstraw plant response rating: 2
[16]; [17]
  Redroot pigweed plant response rating: 0
[16]; [19]
  Redroot pigweed plant response rating: 7
[16]; [20]
  Plant response rating, Redroot pigweed: 8
[16]; [21]
  Plant response rating, Redroot pigweed: 8
[16]; [22]
  Redroot pigweed plant response rating: 8
[16]; [23]
  Redroot pigweed plant response rating: 0
[16]; [29]
  Plant response rating, Redroot pigweed: 0
[16]; [24]
  Redroot pigweed plant response rating: 3

From patent US6737383B1, “Herbicidal oxadiazolidines” (priority 1999, dated 2004)
